Laboratory results published in patent US5874442A, “Tricyclic amides useful for inhibition of G-protein function and for treatment of proliferative disease” (Schering-Plough Corporation, priority 1996, dated 1999).
pIC50: −log10 of the molar value. Where a name gives a salt, the structure may show the parent alone. Read-outs that look alike come from different tables or passages of the source.

Columns and labels:
[1] = tested on: DLD-1 (human colon carcinoma cells); test: In vivo anti-tumor studies, subcutaneous DLD-1 tumors in athymic nu/nu mice; parameters: species or system athymic nu/nu female mice; settings: Mus musculus, DLD-1, po, read-out: Average % Tumor Inhibition
Procedure: Tumor bearing animals are selected and randomized when the tumors are established. Animals are treated with vehicle (β-cyclodextrin for i.p. or corn oil for p.o.) only or with a compound of the present invention in vehicle four times a day (QID) for 7 days per week for 4 weeks. The percent inhibition of tumor growth relative to vehicle controls is determined by tumor measurements.

[2] = tested on: SW620-BAG human colon carcinoma cells expressing an activated K-ras gene; test: Cell mat assay, SW620-BAG tumor cells; assay type: cell-based; settings: Mat assay, 14 d, read-out: Tumor (SW620) IC50
Procedure: (§1) Compound-induced colony inhibition was assayed by addition of serial dilutions of compound directly to the growth medium 24 h after tumor cell planting, and incubating cells for an additional 14 d to allow colony formation. Assays were terminated by rinsing monolayers twice with phosphate-buffered saline (PBS), fixing the monolayers with a 1% glutaraldehyde solution in PBS, then visualizing tumor cells by staining with X-Gal (Price, J., et al., Lineage analysis in the vertebrate nervous system by retrovirus-mediated gene transfer, Proc. Natl. Acad. Sci.84, 156-160(1987)). […] Both IC50 values were obtained by determining the density of tumor cells and mat cells by visual inspection and enumeration of cells per colony and the number of colonies under the microscope.
(§2) Additional assays were carried out by following essentially the same procedure as described above, but with substitution of alternative indicator tumor cell lines in place of the T24-BAG cells. The assays were conducted using either DLD-1-BAG human colon carcinoma cells expressing as activated K-ras gene or SW620-BAG human colon carcinoma cells expressing an activated K-ras gene.

[3] = molecular target: T1, farnesyl protein transferase (FPT) (Rattus norvegicus, UniProt Q02293+Q04631); test: In vitro enzyme assay: inhibition of farnesyl protein transferase (FPT), [3H]farnesyl transfer to Ras-CVLS; assay type: biochemical
T1 construct: were partially purified from rat brain by ammonium sulfate fractionation; from tissue; host or cells: rat brain (ammonium sulfate fractionation, Q-Sepharose)
Procedure: 1. In vitro enzyme assays:
Inhibition of farnesyl protein transferase and geranylgeranyl protein transferase.
Human farnesyl protein transferase was also expressed in E. coli, using cDNA clones encoding both the a and b subunits. […] Human farnesyl protein transferase was partially-purified from the soluble protein fraction of E. coli as described above. […] Two forms of val^12 -Ha-Ras protein were prepared as substrates for these enzymes, differing in their carboxy terminal sequence. One form terminated in cysteine-valine-leucine-serine (Ras-CVLS) the other in cystein-valine-leucine-leucine (Ras-CVLL). Ras-CVLS is a substrate for the farnesyl protein transferase while Ras-CVLL is a substrate for geranylgeranyl protein transferase I. The cDNAs encoding these proteins were constructed so that the proteins contain an amino-terminal extension of 6 histidine residues. Both proteins were expressed in Escherichia coli and purified using metal chelate affinity chromatography. The radiolabelled isoprenyl pyrophosphate substrates, [^3 H]farnesyl pyrophosphate and [^3 H] geranylgeranyl pyrophosphate, were purchased from DuPont/New England Nuclear.
The reaction was allowed to proceed for 30 minutes at room temperature and then stopped with 0.5 ml of 4% sodium dodecyl sulfate (SDS) followed by 0.5 ml of cold 30% TCA. Samples were allowed to sit on ice for 45 minutes and precipitated Ras protein was then collected on GF/C filter paper mats using a Brandel cell harvester. […] Percent inhibition was calculated relative to the DMSO vehicle control.

[4] = tested on: Ras-CVLS processing in COS cells; test: Cell-based COS cell assay: inhibition of Ras processing (Ras-CVLS); parameters: species or system monkey
Source text: Transient expression of val^12 -Ha-Ras-CVLS and […] -Ha-Ras-CVLL in COS monkey kidney cells: Effect of farnesyl protein transferase inhibitors on Ras processing and on disordered cell growth induced by transforming Ras.
COS monkey kidney cells were transfected by electroporation with the plasmid pSV-SPORT (Gibco/BRL) containing a cDNA insert encoding either Ras-CVLS or Ras-CVLL, leading to transient overexpression of a Ras substrate for either farnesyl protein transferase or geranylgeranyl protein transferase I, respectively (see above).
Following electroporation, cells were plated into 6-well tissue culture dishes containing 1.5 ml of Dulbecco's-modified Eagle's media (GIBCO, Inc.) supplemented with 10% fetal calf serum and the appropriate farnesyl protein transferase inhibitors. After 24 hours, media was removed and fresh media containing the appropriate drugs was re-added.
48 hours after electroporation cells were examined under the microscope to monitor disordered cell growth induced by transforming Ras. Cells expressing transforming Ras become more rounded and refractile and overgrow the monolayer, reminiscent of the transformed phenotype. Cells were then photographed, washed twice with 1 ml of cold phosphate-buffered saline (PBS) and removed from the dish by scraping with a rubber policeman into 1 ml of a buffer containing 25 mM Tris, pH 8.0; 1 mM ethylenediamine tetraacetic acid; 1 mM phenylmethylsulfonyl fluoride; […]; and 0.1 mM pepstatin. Cells were lysed by homogenization and cell debris was removed by centrifugation at 2000× g for 10 min.
Cellular protein was precipitated by addition of ice-cold trichloroacetic acid and redissolved in […] of SDS-electrophoresis sample buffer. […] Proteins resolved on the gels were electroblotted onto nitrocellulose membranes for immunodetection.
After washing, membranes were incubated for one hour at room temperature with a 1:5000 dilution of secondary antibody, rabbit anti-rat lgG conjugated to horseradish peroxidase, in PBS containing 1% fetal calf serum. The presence of processed and unprocessed Ras-CVLS or Ras-CVLL was detected using a colorimetric peroxidase reagent (4-chloro-1-naphthol) as described by the manufacturer (Bio-Rad).

[5] = tested on: T24-BAG4 human bladder carcinoma cells expressing an activated H-ras gene; test: Cell mat assay, T24-BAG4 tumor cells; assay type: cell-based; settings: Mat assay, 14 d, read-out: Tumor (T-24) IC50
Procedure: as §1

[6] = tested on: Normal human HEPM fibroblasts; test: Cell mat assay, normal cells (cell mat); assay type: cell-based; settings: Mat assay, 14 d, normal cells, read-out: Normal IC50
Procedure: as §1

[7] = tested on: DLD-1-BAG human colon carcinoma cells; test: Cell mat assay, DLD-1-BAG tumor cells; assay type: cell-based; settings: Mat assay, 14 d, read-out: Tumor (DLD-1) IC50
Procedure: as §1, §2

[8] = […], Experiment No. 1, 50 mg/kg p.o., QID, 7 days per week for 4 weeks
[9] = […], Experiment No. 2, 10 mg/kg p.o., QID, 7 days per week for 4 weeks
[10] = […], Experiment No. 3, 50 mg/kg p.o., QID, 7 days per week for 4 weeks
[11] = […], Experiment No. 4, 10 mg/kg p.o., QID, 7 days per week for 4 weeks
[12] = Primates, COS, read-out: Inhibition of Ras Processing IC50, Table 3, COS cells
[13] = Table 3, COS cells, read-out: Inhibition of Ras Processing IC50

O=C(Cc1cc[n+]([O-])cc1)N1CCC(=C2c3ncc(Br)cc3CCc3cc(Cl)cc(Br)c32)CC1 (racemic) [Example 7]
inhibition in vivo at 50 mg/kg [1, 8]: 76.5%
inhibition in vivo at 10 mg/kg [1, 9]: 35.1%

NC(=O)N1CCC(CC(=O)N2CCN(C3c4ncc(Br)cc4CCc4cc(Cl)cc(Br)c43)CC2)CC1 (single isomer, unassigned) [Example 12B]
inhibition in vivo at 50 mg/kg [1, 8]: 83%
inhibition in vivo at 10 mg/kg [1, 9]: 37.7%

NC(=O)N1CCC(CC(=O)N2CCC(C3c4ccc(Cl)c(Br)c4CCc4cc(Br)cnc43)CC2)CC1 (single isomer, unassigned) [Example 13]
pIC50 ([2]; Homo sapiens, SW-620, 336 h): < 5.80
inhibition in vivo at 50 mg/kg [1, 8]: 61%
inhibition in vivo at 10 mg/kg [1, 9]: 7%

O=C(Cc1cc[n+]([O-])cc1)N1CCC(C2c3ccc(Cl)c(Br)c3CCc3cc(Br)cnc32)CC1 (single isomer, unassigned) [Example 14A · HCl salt]
pIC50 ([3]; Table 1, Ras-CVLS substrate, 30 minutes at room temperature, read-out: FPT IC50): > 8.51

O=C(Cc1cc[n+]([O-])cc1)N1CCC(C2c3ccc(Cl)c(Br)c3CCc3cc(Br)cnc32)CC1 (single isomer, unassigned) [Example 14A]
inhibition in vivo at 50 mg/kg [1, 8]: 59%
inhibition in vivo at 10 mg/kg [1, 9]: 48%

NC(=O)N1CCC(CC(=O)N2CCC(C3c4ccc(Cl)cc4C=Cc4cc(Br)cnc43)CC2)CC1 (centres unmarked) [Example 1]
inhibition in vivo at 50 mg/kg [1, 8]: 38.2%
inhibition in vivo at 10 mg/kg [1, 9]: 17.2%
inhibition in vivo at 50 mg/kg [1, 10]: 35.4%
inhibition in vivo at 10 mg/kg [1, 11]: 34%

NC(=O)N1CCC(CC(=O)N2CCC(C3c4ccc(Cl)cc4CCc4cc(Br)cnc43)CC2)CC1 (centres unmarked) [Example 4]
inhibition in vivo at 50 mg/kg [1, 8]: 41%
inhibition in vivo at 10 mg/kg [1, 9]: 18%
inhibition in vivo at 50 mg/kg [1, 10]: 41%
inhibition in vivo at 10 mg/kg [1, 11]: 14%

O=C(Cc1cc[n+]([O-])cc1)N1CCN([C@H]2c3ccc(Cl)c(Br)c3CCc3cc(Br)cnc32)CC1 [Example 5 · HCl salt]
pIC50 [4, 12]: 8.00

O=C(Cc1cc[n+]([O-])cc1)N1CCN([C@H]2c3ccc(Cl)c(Br)c3CCc3cc(Br)cnc32)CC1 [Example 5]
inhibition in vivo at 10 mg/kg ([1]; […]): 24%
inhibition in vivo at 50 mg/kg ([1]; […]): 38%

NC(=O)N1CCC(CC(=O)N2CCN([C@H]3c4ccc(Cl)c(Br)c4CCc4cc(Br)cnc43)CC2)CC1 [Example 6]
inhibition in vivo at 50 mg/kg [1, 8]: 61.2%
inhibition in vivo at 10 mg/kg [1, 9]: 35.4%

O=C(Cc1cc[n+]([O-])cc1)N1CCC(=C2c3ncc(Br)cc3CCc3cc(Cl)cc(Br)c32)CC1 [Example 7A]
inhibition in vivo at 10 mg/kg ([1]; Experiment No. 2, 10 mg/kg p.o., QID, 7 days per week for 4 weeks): 33.7%
pIC50 [4, 13]: < 6.00

O=C(Cc1cc[n+]([O-])cc1)N1CCC(=C2c3ncc(Br)cc3CCc3cc(Cl)cc(Br)c32)CC1 [Example 7B]
pIC50 ([5]; Homo sapiens, 336 h): > 5.80
pIC50 [6]: < 4.60

NC(=O)N1CCC(CC(=O)N2CCC(=C3c4ncc(Br)cc4CCc4cc(Cl)cc(Br)c43)CC2)CC1 [Example 8A]
pIC50 ([7]; Homo sapiens, DLD-1, 336 h): > 5.80
pIC50 ([2]; Homo sapiens, SW-620, 336 h): 5.51
pIC50 ([5]; Homo sapiens, 336 h): > 5.80
pIC50 ([6]; Homo sapiens, Fibroblast, 336 h): < 4.60
pIC50 [4, 13]: < 6.00

NC(=O)N1CCC(CC(=O)N2CCC(=C3c4ncc(Br)cc4CCc4cc(Cl)cc(Br)c43)CC2)CC1 [Example 8B]
pIC50 [7]: > 5.80
pIC50 [2]: 5.51
pIC50 [5]: > 5.80
pIC50 [6]: < 4.60
inhibition in vivo at 50 mg/kg [1, 8]: 62.5%
inhibition in vivo at 10 mg/kg [1, 9]: 29.2%
pIC50 [4, 13]: 6.55

O=C(Cc1cc[n+]([O-])cc1)N1CCC([C@@H]2c3ncc(Br)cc3CCc3cc(Cl)cc(Br)c32)CC1 [Example 9A]
pIC50 [3]: < 7.06
pIC50 ([5]; Homo sapiens, 336 h): > 5.80
pIC50 ([4]; Primates, COS, Table 3, COS cells, read-out: Inhibition of Ras Processing IC50): 6.07

O=C(Cc1cc[n+]([O-])cc1)N1CCC([C@H]2c3ncc(Br)cc3CCc3cc(Cl)cc(Br)c32)CC1 [Example 9]
inhibition in vivo at 50 mg/kg [1, 8]: 68%
inhibition in vivo at 10 mg/kg [1, 9]: 19%

O=C(Cc1cc[n+]([O-])cc1)N1CCN([C@H]2c3ncc(Br)cc3CCc3cc(Cl)cc(Br)c32)CC1 [Example 11A]
inhibition in vivo at 10 mg/kg ([1]; […]): 44.8%
inhibition in vivo at 50 mg/kg ([1]; […]): 63.8%

O=C(Cc1cc[n+]([O-])cc1)N1CCN([C@@H]2c3ncc(Br)cc3CCc3cc(Cl)cc(Br)c32)CC1 [Example 11B]
inhibition in vivo at 10 mg/kg ([1]; […]): 17%
inhibition in vivo at 50 mg/kg ([1]; […]): 38.8%

O=C(Cc1cc[n+]([O-])cc1)N1CCN(C2c3ncc(Br)cc3CCc3cc(Cl)cc(Br)c32)CC1 (centres unmarked) [Example 11]
pIC50 [4, 12]: > 6.60

NC(=O)N1CCC(CC(=O)N2CCC(C3c4ccc(Cl)c(Br)c4CCc4cc(Br)cnc43)CC2)CC1 (centres unmarked) [Example 13B]
pIC50 ([2]; Homo sapiens, SW-620, 336 h): < 5.51

O=C(Cc1cc[n+]([O-])cc1)N1CCN([C@H]2c3ccc(Cl)cc3CCc3cc(Br)cnc32)CC1 [Example 16B]
inhibition in vivo at 10 mg/kg ([1]; […]): 50%
inhibition in vivo at 50 mg/kg ([1]; […]): 77%

NC(=O)N1CCC(CC(=O)N2CCN([C@@H]3c4ccc(Cl)cc4CCc4cc(Br)cnc43)CC2)CC1 [Example 17]
pIC50 ([2]; Homo sapiens, SW-620, 336 h): 4.60
